The supplement of paper PMC11451515

System: SEM cells
Experiment: cell viability relative to DMSO control; higher = less cytotoxic
Details: 48 h
Outline: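 Cells were incubated for 48 h at 37°C before CellTiter-Glo One luminescence was read. The cells were NOMO1 or SEM (500 cells/well) or P12-Ichikawa (1000 cells/well) leukemia cells, adapted for at least four passages in each medium and seeded in 1536-well plates (5 μl). Dosing used library compounds in DMSO applied by pin over 11 threefold points, 47 μM to 0.79 nM. Viability is the per-plate percentage of DMSO wells, with cell-free wells as background.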

[1] = HPLM + 10% dialyzed FBS, 0.000781 µM
[2] = HPLM + 10% dialyzed FBS, 0.00234 µM
[3] = HPLM + 10% dialyzed FBS, 0.00702 µM
[4] = HPLM + 10% dialyzed FBS, 0.0211 µM
[5] = HPLM + 10% dialyzed FBS, 0.0632 µM
[6] = HPLM + 10% dialyzed FBS, 0.19 µM
[7] = HPLM + 10% dialyzed FBS, 0.569 µM
[8] = HPLM + 10% dialyzed FBS, 1.71 µM
[9] = HPLM + 10% dialyzed FBS, 5.12 µM
[10] = HPLM + 10% dialyzed FBS, 15.4 µM
[11] = HPLM + 10% dialyzed FBS, 46.1 µM
[12] = RPMI 5 mM glucose + 10% FBS, 0.000781 µM
[13] = RPMI 5 mM glucose + 10% FBS, 0.00234 µM
[14] = RPMI 5 mM glucose + 10% FBS, 0.00702 µM
[15] = RPMI 5 mM glucose + 10% FBS, 0.0211 µM
[16] = RPMI 5 mM glucose + 10% FBS, 0.0632 µM
[17] = RPMI 5 mM glucose + 10% FBS, 0.19 µM
[18] = RPMI 5 mM glucose + 10% FBS, 0.569 µM
[19] = RPMI 5 mM glucose + 10% FBS, 1.71 µM
[20] = RPMI 5 mM glucose + 10% FBS, 5.12 µM
[21] = RPMI 5 mM glucose + 10% FBS, 15.4 µM
[22] = RPMI 5 mM glucose + 10% FBS, 46.1 µM
[23] = RPMI 5 mM glucose + 10% dialyzed FBS, 0.000781 µM
[24] = RPMI 5 mM glucose + 10% dialyzed FBS, 0.00234 µM
[25] = RPMI 5 mM glucose + 10% dialyzed FBS, 0.00702 µM
[26] = RPMI 5 mM glucose + 10% dialyzed FBS, 0.0211 µM
[27] = RPMI 5 mM glucose + 10% dialyzed FBS, 0.0632 µM
[28] = RPMI 5 mM glucose + 10% dialyzed FBS, 0.19 µM
[29] = RPMI 5 mM glucose + 10% dialyzed FBS, 0.569 µM
[30] = RPMI 5 mM glucose + 10% dialyzed FBS, 1.71 µM
[31] = RPMI 5 mM glucose + 10% dialyzed FBS, 5.12 µM
[32] = RPMI 5 mM glucose + 10% dialyzed FBS, 15.4 µM
[33] = RPMI 5 mM glucose + 10% dialyzed FBS, 46.1 µM

Compound `Cc1cc(Nc2nc(N[C@@H](C)c3ccc(F)cc3)c(C#N)cc2F)n[nH]1` has a cell viability [1] of 120%, a cell viability [2] of 106% and a cell viability [3] of 114%. The cell viability [4] was 110%, the cell viability [5] was 101% and the cell viability [6] was 95%. The cell viability [7] was 99.1%, the cell viability [8] was 88.7% and the cell viability [9] was 23.4%. For the same compound, the cell viability [10] was 15%, the cell viability [11] was 7.41% and the cell viability [12] was 112%. It also gave a cell viability [13] of 104%, a cell viability [14] of 111% and a cell viability [15] of 112%. The cell viability [16] was 107%, the cell viability [17] was 112% and the cell viability [18] was 103%. For the same compound, the cell viability [19] was 93.4%, the cell viability [20] was 24.1% and the cell viability [21] was 13.3%. The cell viability [22] was 6.68%, the cell viability [23] was 104% and the cell viability [24] was 100%. It also gave a cell viability [25] of 106%, a cell viability [26] of 105% and a cell viability [27] of 93.9%. It also gave a cell viability [28] of 101%, a cell viability [29] of 100% and a cell viability [30] of 76.9%. For the same compound, the cell viability [31] was 23.9%, the cell viability [32] was 16.7% and the cell viability [33] was 6.42%.
With `OC(=O)C(CC/1=C/C(=O)NC2=CC=CC=C12)NC(=O)C3=CC=C(Cl)C=C3` (centres undefined) the cell viability [1] was 94.7%, the cell viability [2] was 93.9% and the cell viability [3] was 108%. It also gave a cell viability [4] of 106%, a cell viability [5] of 108% and a cell viability [6] of 107%. For the same compound, the cell viability [7] was 116%, the cell viability [8] was 105% and the cell viability [9] was 121%. The cell viability [10] was 121%, the cell viability [11] was 112% and the cell viability [12] was 113%. The cell viability [13] was 109%, the cell viability [14] was 106% and the cell viability [15] was 113%. It also gave a cell viability [16] of 133%, a cell viability [17] of 112% and a cell viability [18] of 116%. For the same compound, the cell viability [19] was 112%, the cell viability [20] was 121% and the cell viability [21] was 126%. The cell viability [22] was 104%, the cell viability [23] was 120% and the cell viability [24] was 105%. For the same compound, the cell viability [25] was 126%, the cell viability [26] was 130% and the cell viability [27] was 118%. For the same compound, the cell viability [28] was 119%, the cell viability [29] was 135% and the cell viability [30] was 117%. The cell viability [31] was 131%, the cell viability [32] was 119% and the cell viability [33] was 120%.
With `Cc1csc(NC(=O)c2sc3nc4c(c(C(F)(F)F)c3c2N)CCC4)n1` the cell viability [1] was 82%, the cell viability [2] was 96.7% and the cell viability [3] was 93.6%. The cell viability [4] was 81.8%, the cell viability [5] was 108% and the cell viability [6] was 86.6%. It also gave a cell viability [7] of 96%, a cell viability [8] of 101% and a cell viability [9] of 81.1%. The cell viability [10] was 70.2%, the cell viability [11] was 89.3% and the cell viability [12] was 82.1%. The cell viability [13] was 99.9%, the cell viability [14] was 89.7% and the cell viability [15] was 107%. The cell viability [16] was 92.2%, the cell viability [17] was 104% and the cell viability [18] was 106%. For the same compound, the cell viability [19] was 97.1%, the cell viability [20] was 84% and the cell viability [21] was 73.1%. It also gave a cell viability [22] of 79%, a cell viability [23] of 84.4% and a cell viability [24] of 96.8%. The cell viability [25] was 106%, the cell viability [26] was 80.8% and the cell viability [27] was 92.9%. For the same compound, the cell viability [28] was 99.3%, the cell viability [29] was 89.6% and the cell viability [30] was 97%. The cell viability [31] was 76.6%, the cell viability [32] was 69.9% and the cell viability [33] was 69.9%.
